The record followed here is patent publication US9050341B2, “Methods of treating drug resistant and other tumors by administering 6,7-dialkoxy quinazoline derivatives” (NATCO PHARMA LIMITED, priority 2009, dated 2015).

Test in all cases: KinomeScan kinase profiling
Holding throughout (type): binding

For one experiment, the target named is T1, AAK1 (Homo sapiens, UniProt Q2M2I8).
T1 construct: host or cells: E. coli host derived from BL21 (T7 phage lysate)
Summed up:
(§1)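 Kinases were expressed as T7 phage fusions in a BL21-derived E. coli host and the cleared lysates were used. Ligand beads were blocked with biotin and buffer (1% BSA, 0.05% Tween 20, 1 mM DTT). Compounds came from 40× DMSO stocks, and phage in the eluates was titred by qPCR.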

The target in another experiment is T2, ASK1 (Homo sapiens, UniProt Q99683).
T2 construct: purchased Ambit Biosciences Corp (KinomeScan); host or cells: E. coli host derived from the BL21 strain, T7 phage
Summed up: as §1

Another experiment concerns the target T3, AXL (Homo sapiens, UniProt P30530).
T3 construct: purchased Ambit Biosciences Corp (KinomeScan); host or cells: E. coli host derived from the BL21 strain, T7 phage
An outline of the steps: as §1

A further experiment concerns the target T4, CHEK2 (Homo sapiens, UniProt O96017).
T4 construct: host or cells: T7 phage in E. coli (BL21-derived)
An outline of the steps:
as §1

Another experiment concerns the target T5, CSNK1G2 (Homo sapiens, UniProt P78368).
T5 construct: purchased Ambit Biosciences Corp (KinomeScan); host or cells: T7 phage in E. coli host derived from BL21
Summed up: as §1

Another experiment concerns the target T6, DDR1 (Homo sapiens, UniProt Q08345).
T6 construct: purchased Ambit Biosciences Corp (KinomeScan); host or cells: T7 phage in E. coli host derived from BL21
An outline of the steps:
as §1

The target in a further experiment is T7, EPHB1 (Homo sapiens, UniProt P54762).
T7 construct: host or cells: E. coli host derived from BL21, T7 phage lysate
An outline of the steps:
as §1

In the next experiment the target is T8, FER (Homo sapiens, UniProt P16591).
T8 construct: host or cells: E. coli host derived from BL21, infected with T7 phage
T8 sequence (P16591 whole entry): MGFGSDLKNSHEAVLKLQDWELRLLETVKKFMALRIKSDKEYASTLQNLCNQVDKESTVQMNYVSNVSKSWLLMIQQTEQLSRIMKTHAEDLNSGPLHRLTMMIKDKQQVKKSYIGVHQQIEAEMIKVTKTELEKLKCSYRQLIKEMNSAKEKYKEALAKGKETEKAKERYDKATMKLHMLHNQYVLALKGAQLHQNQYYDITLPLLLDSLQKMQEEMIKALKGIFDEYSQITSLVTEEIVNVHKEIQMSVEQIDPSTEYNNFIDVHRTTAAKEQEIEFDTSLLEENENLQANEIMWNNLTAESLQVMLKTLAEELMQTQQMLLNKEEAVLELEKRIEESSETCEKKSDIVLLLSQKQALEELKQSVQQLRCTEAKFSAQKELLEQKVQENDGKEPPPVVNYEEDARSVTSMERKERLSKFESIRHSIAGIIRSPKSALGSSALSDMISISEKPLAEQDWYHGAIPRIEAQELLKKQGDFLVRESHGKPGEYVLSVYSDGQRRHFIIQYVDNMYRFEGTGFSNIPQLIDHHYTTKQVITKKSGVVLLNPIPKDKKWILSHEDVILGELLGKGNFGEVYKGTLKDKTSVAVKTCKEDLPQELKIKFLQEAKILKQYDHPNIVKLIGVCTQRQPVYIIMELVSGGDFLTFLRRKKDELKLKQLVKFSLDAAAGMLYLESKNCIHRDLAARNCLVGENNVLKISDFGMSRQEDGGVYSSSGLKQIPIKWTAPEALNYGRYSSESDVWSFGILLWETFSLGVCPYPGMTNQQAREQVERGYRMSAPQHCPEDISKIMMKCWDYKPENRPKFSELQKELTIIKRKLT
Summed up:
as §1

The next experiment deals with T9, FGFR3 (G697C) (Homo sapiens, UniProt P22607, G697C).
T9 construct: host or cells: E. coli host derived from BL21, infected with T7 phage
Summed up: as §1

In another experiment the target is T10, FGFR3 (Homo sapiens, UniProt P22607).
T10 construct: host or cells: E. coli host derived from BL21, infected with T7 phage
Summed up: as §1

In the next experiment the target is T11, FYN (Homo sapiens, UniProt P06241).
T11 construct: host or cells: E. coli host derived from BL21, infected with T7 phage
T11 sequence (P06241 whole entry): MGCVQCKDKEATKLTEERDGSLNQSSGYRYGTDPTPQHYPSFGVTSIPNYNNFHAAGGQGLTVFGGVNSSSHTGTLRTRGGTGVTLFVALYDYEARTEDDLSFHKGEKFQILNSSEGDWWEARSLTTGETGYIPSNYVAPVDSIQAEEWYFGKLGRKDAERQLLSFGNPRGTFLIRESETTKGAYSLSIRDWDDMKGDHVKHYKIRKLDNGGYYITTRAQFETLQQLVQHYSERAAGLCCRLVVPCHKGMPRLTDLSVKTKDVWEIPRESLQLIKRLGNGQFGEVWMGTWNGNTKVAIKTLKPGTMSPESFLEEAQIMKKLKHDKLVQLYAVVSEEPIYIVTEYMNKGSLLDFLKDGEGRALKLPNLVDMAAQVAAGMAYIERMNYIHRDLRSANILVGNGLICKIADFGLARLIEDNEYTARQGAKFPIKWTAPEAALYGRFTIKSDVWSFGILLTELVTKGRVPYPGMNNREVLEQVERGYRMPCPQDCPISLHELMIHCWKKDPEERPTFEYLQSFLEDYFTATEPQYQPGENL
An outline of the steps: as §1

The target in another experiment is T12, MKNK1 (Homo sapiens, UniProt Q9BUB5).
T12 construct: host or cells: T7 phage in E. coli host derived from BL21
T12 sequence (Q9BUB5 whole entry): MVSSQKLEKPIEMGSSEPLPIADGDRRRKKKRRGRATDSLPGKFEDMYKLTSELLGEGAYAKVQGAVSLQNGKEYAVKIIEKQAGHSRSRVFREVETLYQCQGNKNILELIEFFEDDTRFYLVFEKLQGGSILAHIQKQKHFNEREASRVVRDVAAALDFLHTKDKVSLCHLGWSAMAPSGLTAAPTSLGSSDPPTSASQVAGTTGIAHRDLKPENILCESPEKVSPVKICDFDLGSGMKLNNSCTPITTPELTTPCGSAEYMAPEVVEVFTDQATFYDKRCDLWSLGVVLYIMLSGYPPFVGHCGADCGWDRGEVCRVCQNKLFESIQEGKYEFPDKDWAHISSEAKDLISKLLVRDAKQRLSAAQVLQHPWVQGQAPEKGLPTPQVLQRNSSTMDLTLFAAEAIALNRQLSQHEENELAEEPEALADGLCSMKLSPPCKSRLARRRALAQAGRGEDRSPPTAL
An outline of the steps:
as §1

For the next experiment, the target named is T13, NEK1 (Homo sapiens, UniProt Q96PY6).
T13 construct: host or cells: T7 phage in E. coli host derived from BL21
An outline of the steps: as §1

The target in another experiment is T14, PIK3C2B (Homo sapiens, UniProt O00750).
T14 construct: host or cells: E. coli host derived from the BL21 strain, infected with T7 phage
T14 sequence (O00750 whole entry): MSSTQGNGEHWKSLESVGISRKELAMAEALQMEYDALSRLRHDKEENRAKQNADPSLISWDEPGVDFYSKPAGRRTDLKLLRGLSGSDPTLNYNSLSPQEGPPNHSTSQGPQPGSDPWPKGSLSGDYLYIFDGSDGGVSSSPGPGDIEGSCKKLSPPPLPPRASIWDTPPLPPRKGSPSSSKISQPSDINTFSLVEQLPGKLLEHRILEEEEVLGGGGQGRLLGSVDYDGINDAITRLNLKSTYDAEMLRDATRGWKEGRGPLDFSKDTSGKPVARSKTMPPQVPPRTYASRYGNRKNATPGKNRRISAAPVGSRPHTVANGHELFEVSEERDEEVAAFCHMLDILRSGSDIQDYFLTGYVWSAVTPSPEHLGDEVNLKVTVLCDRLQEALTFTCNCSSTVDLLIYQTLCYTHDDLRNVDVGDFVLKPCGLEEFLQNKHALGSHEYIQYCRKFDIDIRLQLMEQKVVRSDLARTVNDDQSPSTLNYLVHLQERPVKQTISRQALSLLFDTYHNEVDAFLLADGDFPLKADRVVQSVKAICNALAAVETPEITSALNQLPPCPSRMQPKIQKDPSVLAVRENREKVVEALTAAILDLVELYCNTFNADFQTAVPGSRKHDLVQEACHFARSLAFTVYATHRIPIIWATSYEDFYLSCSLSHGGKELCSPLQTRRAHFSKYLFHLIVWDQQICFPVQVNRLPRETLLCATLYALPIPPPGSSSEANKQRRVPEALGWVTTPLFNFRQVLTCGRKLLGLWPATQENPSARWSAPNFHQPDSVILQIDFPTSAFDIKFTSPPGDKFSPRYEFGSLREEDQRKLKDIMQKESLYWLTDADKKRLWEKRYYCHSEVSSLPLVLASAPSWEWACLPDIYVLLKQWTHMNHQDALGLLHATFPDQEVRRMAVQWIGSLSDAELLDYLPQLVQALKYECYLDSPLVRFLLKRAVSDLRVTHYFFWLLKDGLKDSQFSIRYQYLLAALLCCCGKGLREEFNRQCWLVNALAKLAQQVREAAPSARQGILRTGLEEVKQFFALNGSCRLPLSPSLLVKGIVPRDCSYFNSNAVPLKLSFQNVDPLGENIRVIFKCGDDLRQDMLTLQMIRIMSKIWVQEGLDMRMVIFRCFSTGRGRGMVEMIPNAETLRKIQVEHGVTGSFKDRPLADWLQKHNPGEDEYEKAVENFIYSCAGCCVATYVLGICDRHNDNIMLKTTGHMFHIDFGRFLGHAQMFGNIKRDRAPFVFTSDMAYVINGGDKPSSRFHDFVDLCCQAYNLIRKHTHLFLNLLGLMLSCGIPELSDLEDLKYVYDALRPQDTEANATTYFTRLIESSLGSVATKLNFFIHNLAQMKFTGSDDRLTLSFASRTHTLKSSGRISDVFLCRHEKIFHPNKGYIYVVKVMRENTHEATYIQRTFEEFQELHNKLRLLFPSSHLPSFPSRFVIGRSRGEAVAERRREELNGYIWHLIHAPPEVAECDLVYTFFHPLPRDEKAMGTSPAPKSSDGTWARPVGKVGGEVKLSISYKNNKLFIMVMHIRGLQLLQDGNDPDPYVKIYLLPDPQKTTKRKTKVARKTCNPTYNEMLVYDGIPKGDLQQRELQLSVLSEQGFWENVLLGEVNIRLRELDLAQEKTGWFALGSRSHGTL
An outline of the steps: as §1

The target in the next experiment is T15, PKMYT1 (Homo sapiens, UniProt Q99640).
T15 construct: purchased Ambit Biosciences Corp (KinomeScan); host or cells: E. coli host derived from BL21, infected with T7 phage
An outline of the steps:
as §1

Experiment [1] deals with T16, RPS6KA5 (Kin.Dom.-2-C-terminal) (Homo sapiens, UniProt O75582).
T16 construct: RPS6KA5 (Kin.Dom.-2-C-terminal); host or cells: E. coli host derived from BL21, T7 phage lysate
T16 sequence (O75582 426-687 limits assumed): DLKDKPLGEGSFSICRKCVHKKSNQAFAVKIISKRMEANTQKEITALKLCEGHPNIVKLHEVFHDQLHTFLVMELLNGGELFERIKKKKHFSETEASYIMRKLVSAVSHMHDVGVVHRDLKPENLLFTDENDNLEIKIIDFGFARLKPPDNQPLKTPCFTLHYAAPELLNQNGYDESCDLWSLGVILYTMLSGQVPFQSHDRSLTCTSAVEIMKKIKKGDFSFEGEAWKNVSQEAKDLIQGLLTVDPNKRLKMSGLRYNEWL
Summed up: as §1

The target in the next experiment is T17, SIK (Homo sapiens, UniProt P57059).
T17 construct: host or cells: E. coli host derived from the BL21 strain, T7 phage lysate
An outline of the steps: as §1

A further experiment concerns the target T18, SIK2 (Homo sapiens, UniProt Q9H0K1).
T18 construct: host or cells: E. coli host derived from the BL21 strain, T7 phage lysate
An outline of the steps: as §1

The next experiment has as its target T19, SLK (Homo sapiens, UniProt Q9H2G2).
T19 construct: host or cells: E. coli host derived from the BL21 strain, T7 phage lysate
An outline of the steps: as §1

The next experiment addresses T20, SYK (Homo sapiens, UniProt P43405).
T20 construct: host or cells: E. coli host derived from the BL21 strain, T7 phage lysate
An outline of the steps: as §1

In the next experiment the target is T21, TIE1 (Homo sapiens, UniProt P35590).
T21 construct: host or cells: E. coli host derived from the BL21 strain, T7 phage lysate
An outline of the steps: as §1

A further experiment concerns the target T22, TRKC (Homo sapiens, UniProt Q16288).
T22 construct: purchased Ambit Biosciences Corp (KinomeScan); host or cells: E. coli host derived from the BL21 strain (T7 phage lysate)
Summed up:
as §1

T18 sequence (Q9H0K1 whole entry): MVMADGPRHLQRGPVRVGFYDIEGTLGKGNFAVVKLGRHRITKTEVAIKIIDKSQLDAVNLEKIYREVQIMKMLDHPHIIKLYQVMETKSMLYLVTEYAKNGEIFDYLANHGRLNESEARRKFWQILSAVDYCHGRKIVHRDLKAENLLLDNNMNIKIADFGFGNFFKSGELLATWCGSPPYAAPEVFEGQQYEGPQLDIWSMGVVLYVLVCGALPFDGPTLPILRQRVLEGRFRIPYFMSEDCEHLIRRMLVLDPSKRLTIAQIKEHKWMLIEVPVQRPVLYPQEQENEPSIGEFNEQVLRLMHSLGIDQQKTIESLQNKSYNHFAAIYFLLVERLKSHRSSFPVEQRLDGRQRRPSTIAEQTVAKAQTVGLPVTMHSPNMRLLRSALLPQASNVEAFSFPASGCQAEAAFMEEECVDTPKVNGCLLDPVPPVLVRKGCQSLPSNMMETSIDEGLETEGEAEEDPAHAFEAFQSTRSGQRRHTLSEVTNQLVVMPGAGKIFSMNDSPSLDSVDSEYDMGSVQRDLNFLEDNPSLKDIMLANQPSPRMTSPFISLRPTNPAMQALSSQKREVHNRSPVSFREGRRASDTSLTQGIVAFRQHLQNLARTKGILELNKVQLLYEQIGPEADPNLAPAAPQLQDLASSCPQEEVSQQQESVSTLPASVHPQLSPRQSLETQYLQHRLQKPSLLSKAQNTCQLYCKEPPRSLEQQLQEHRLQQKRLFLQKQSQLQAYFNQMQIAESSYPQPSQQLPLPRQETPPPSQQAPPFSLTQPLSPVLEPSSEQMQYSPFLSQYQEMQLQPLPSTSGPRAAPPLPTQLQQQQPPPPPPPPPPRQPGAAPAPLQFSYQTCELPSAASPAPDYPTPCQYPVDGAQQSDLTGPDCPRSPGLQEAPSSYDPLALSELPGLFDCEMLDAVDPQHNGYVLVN
T5 sequence (P78368 whole entry): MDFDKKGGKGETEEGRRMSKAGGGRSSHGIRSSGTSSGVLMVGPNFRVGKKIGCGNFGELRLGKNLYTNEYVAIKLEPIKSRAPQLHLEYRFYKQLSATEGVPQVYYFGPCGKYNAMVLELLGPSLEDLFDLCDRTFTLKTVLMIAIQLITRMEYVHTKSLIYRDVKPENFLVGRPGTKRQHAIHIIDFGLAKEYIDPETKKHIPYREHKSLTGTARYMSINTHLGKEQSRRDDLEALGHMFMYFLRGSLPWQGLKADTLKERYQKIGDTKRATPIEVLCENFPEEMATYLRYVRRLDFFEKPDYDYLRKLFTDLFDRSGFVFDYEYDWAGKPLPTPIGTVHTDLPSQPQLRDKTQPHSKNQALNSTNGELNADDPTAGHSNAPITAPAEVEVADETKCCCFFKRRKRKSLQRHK

On to `C#Cc1cccc(Nc2ncnc3cc(OC)c(OCCCN4CCOCC4)cc23)c1` [NRC-2694, N-(3-ethylnylphenyl)-7-methoxy-6-[3-(4-morpholinyl)propoxy]-4-quinazolinamine], for which the “% Ctrl @ 10000 nM” value on AAK1 turned out to be 38 % Ctrl; at ASK1, 100 % Ctrl; on AXL, 25 % Ctrl; on CHEK2, 38 % Ctrl; on CSNK1G2, 76 % Ctrl; on DDR1, 39 % Ctrl. Further, the “% Ctrl @ 10000 nM” value at EPHB1 came to 72 % Ctrl; on FER it was 94 % Ctrl; at FGFR3 (G697C), 82 % Ctrl; on FGFR3, 100 % Ctrl; at FYN it was 41 % Ctrl; on MKNK1, 1.2 % Ctrl. In addition, the “% Ctrl @ 10000 nM” value at NEK1 stood at 66 % Ctrl; on PIK3C2B, 93 % Ctrl; on PKMYT1, 74 % Ctrl; in experiment [1], 57 % Ctrl; on SIK, 53 % Ctrl; on SIK2, 21 % Ctrl. The “% Ctrl @ 10000 nM” value on SLK came out at 0.3 % Ctrl; on SYK, 56 % Ctrl; on TIE1, 52 % Ctrl; on TRKC, 80 % Ctrl.
